Assay results as given in patent US8759333B2, “Di-azetidinyl diamide as monoacylglycerol lipase inhibitors” (Janssen Pharmaceutica, NV, priority 2010, dated 2014).
pIC50, pKd: −log10 of the molar value.

How the values were obtained:
[1] = molecular target: T1, mutant MGL (mut-MGLL 11-313 L179S L186S) (Homo sapiens, UniProt Q99685, L169S/L176S); test: MGL Enzyme Activity Assay, purified mutant MGL, 4MU-B substrate; assay type: biochemical; conditions: mutant MGL 5 nM, 4MU-B 10 μM, 37° C.; read-out: MGL mutant inh IC50
T1 construct: purified mutant MGL (mut-MGLL 11-313 L179S L186S)
T1 sequence (Q99685 1-303 L169S/L176S): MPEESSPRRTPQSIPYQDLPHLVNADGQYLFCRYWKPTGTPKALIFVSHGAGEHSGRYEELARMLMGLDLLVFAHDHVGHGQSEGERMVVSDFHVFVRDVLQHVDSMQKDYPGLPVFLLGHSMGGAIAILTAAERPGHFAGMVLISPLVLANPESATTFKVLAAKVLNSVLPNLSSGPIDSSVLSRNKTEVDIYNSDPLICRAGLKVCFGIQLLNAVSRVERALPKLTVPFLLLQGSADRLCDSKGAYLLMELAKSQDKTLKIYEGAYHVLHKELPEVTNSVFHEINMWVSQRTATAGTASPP
Procedure: All rate-based assays were performed in black 384-well polypropylene PCR microplates (Abgene) in a total volume of 30 μL. Substrate 4-methylumbelliferyl butyrate (4MU-B; Sigma) and either purified mutant MGL (mut-MGLL 11-313 L179S L186S) or purified wild type MGL (wt-MGLL 6H-11-313) were diluted separately into 20 mM PIPES buffer (pH=7.0), containing 150 mM NaCl and 0.001% Tween 20. Compounds of Formula (I), including Formulas I(a), I(b), and I(c), were pre-dispensed (50 nL) into the assay plate using a Cartesian Hummingbird prior to adding 4MU-B (25 μL of 1.2× solution to a final concentration of 10 μM) followed by enzyme (5 μL of a 6× solution to a final concentration of 5 nM) to initiate the reaction. Final compound concentrations ranged from 17 to 0.0003 μM. The fluorescence change due to 4MU-B cleavage was monitored with excitation and emission wavelengths of 335 and 440 nm, respectively, and a bandwidth of 10 nm (Safire^2, Tecan) at 37° C. for 5 min.
The IC50 values for the following compounds were determined using Microsoft Office Excel from a fit of the equation to the concentration-response plot of the fractional activity as a function of inhibitor concentration.

mutant MGL = molecular target: T2, mutant MGL (Homo sapiens, UniProt Q99685, L169S/L176S); test: MGL ThermoFluor Assay - Mutant; assay type: binding; conditions: 0.07 mg/ml mutant MGL, 100 μM ANS, pH 7.0
T2 construct: purified mutant MGL (mut-MGLL 11-313 L179S L186S)
T2 sequence (Q99685 1-303 L169S/L176S): T1 sequence (Q99685 1-303 L169S/L176S)
Procedure: The ThermoFluor (TF) assay is a 384-well plate-based binding assay that measures thermal stability of proteins^1,2. The experiments were carried out using instruments available from Johnson & Johnson Pharmaceutical Research & Development, LLC. TF dye used in all experiments was 1,8-ANS (Invitrogen: A-47). Final TF assay conditions used for MGL studies were 0.07 mg/ml of mutant MGL, 100 μM ANS, 200 mM NaCl, 0.001% Tween-20 in 50 mM PIPES (pH=7.0).
Screening compound plates contained 100% DMSO compound solutions at a single concentration. […] Columns 12 and 24 were used as DMSO reference and contained no compound. […] Following compound dispension, protein and dye solutions were added to achieve the final assay volume of 3 μL.
Bar-coded assay plates were robotically loaded onto a thermostatically controlled PCR-type thermal block and then heated from 40 to 90° C. degrees at a ramp-rate of 1° C./min for all experiments. Fluorescence was measured by continuous illumination with UV light (Hamamatsu LC6), supplied via fiber optics and filtered through a band-pass filter (380-400 nm; >60D cutoff). Fluorescence emission of the entire 384-well plate was detected by measuring light intensity using a CCD camera (Sensys, Roper Scientific) filtered to detect 500±25 nm, resulting in simultaneous and independent readings of all 384 wells. A single image with 20-sec exposure time was collected at each temperature, and the sum of the pixel intensity in a given area of the assay plate was recorded vs temperature and fit to standard equations to yield the Tm^1. • 1.
The Kd values for certain compounds of Formula (I) were determined from a fit of the equation to the concentration-response plot of the fractional activity as a function of […]. For some experiments, quantitative NMR spectroscopy (qNMR) was used to measure concentration of the initial 100% DMSO compound solutions and, using the same fitting method, qKd values were determined.

MGL = molecular target: T3, MGL (Rattus norvegicus, UniProt Q8R431); test: 2-AG Accumulation Assay in rat brain homogenate; assay type: biochemical; conditions: percent of vehicle; for activity at 1 µM: compound @1 µM, read-out: Rat Brain 2AG % VehCntrl (%) @1 µM; for activity at 10 µM: compound @10 µM, read-out: Rat Brain 2AG % VehCntrl (%) @10 µM
T3 construct: one g rat brain was homogenized using a Polytron homogenizer; from tissue; host or cells: rat brain homogenate
T3 sequence (Q8R431 1-303): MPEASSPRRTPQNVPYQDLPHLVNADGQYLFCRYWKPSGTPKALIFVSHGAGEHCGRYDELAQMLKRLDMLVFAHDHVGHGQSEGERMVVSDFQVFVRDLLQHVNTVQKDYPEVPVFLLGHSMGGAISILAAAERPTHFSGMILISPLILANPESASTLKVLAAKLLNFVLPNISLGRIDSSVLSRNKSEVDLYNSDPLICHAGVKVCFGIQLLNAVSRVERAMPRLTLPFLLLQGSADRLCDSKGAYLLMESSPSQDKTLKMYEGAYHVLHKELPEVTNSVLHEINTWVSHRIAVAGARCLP

Row | SMILES | pIC50 [1] | pKd (mutant MGL) | activity at 1 µM (MGL) | activity at 10 µM (MGL)
1 | O=C(NC1CN(C2CN(C(=O)c3ccc4nc(Br)sc4c3)C2)C1)c1cscn1 [Cpd 46, N-{1′-[(2-Bromo-1,3-benzothiazol-6-yl)carbonyl]-1,3′-biazetidin-3-yl}-1,3-thiazole-4-carboxamide] | 5.43 | 5.47 | – | –
2 | CS(=O)(=O)c1cccc(-c2ccc(C(=O)N3CC(N4CC(NC(=O)c5nccs5)C4)C3)cc2)c1 [Cpd 18, N-(1′-{[3′-(Methylsulfonyl)biphenyl-4-yl]carbonyl}-1,3′-biazetidin-3-yl)-1,3-thiazole-2-carboxamide] | 7.23 | 6.67 | 218% | –
3 | O=C(c1cc2ccc(C(F)(F)F)cc2s1)N1CC(N2CC(N3Cc4ccccc4C3=O)C2)C1 [Cpd 81, 2-(1′-{[6-(Trifluoromethyl)-1-benzothiophen-2-yl]carbonyl}-1,3′-biazetidin-3-yl)-2,3-dihydro-1H-isoindol-1-one] | 7.72 | 7.80 | 192% | 409%
4 | O=C(NC1CN(C2CN(C(=O)c3ccc(Oc4ccccc4)cc3)C2)C1)c1ccccc1 [Cpd 45, N-{1′-[(4-Phenoxyphenyl)carbonyl]-1,3′-biazetidin-3-yl}benzamide] | 5.56 | 6.08 | – | –
5 | O=C(c1ccc2c(ccn2-c2ccccc2)c1)N1CC(N2CC(N3Cc4ccccc4C3=O)C2)C1 [Cpd 85, 2-{1′-[(1-Phenyl-1H-indol-5-yl)carbonyl]-1,3′-biazetidin-3-yl}-2,3-dihydro-1H-isoindol-1-one] | 7.44 | 7.60 | – | 693%
6 | O=C(NC1CN(C2CN(C(=O)c3cc4c(C(F)(F)F)cccc4s3)C2)C1)c1nccs1 [Cpd 8, N-(1′-{[4-(Trifluoromethyl)-1-benzothiophen-2-yl]carbonyl}-1,3′-biazetidin-3-yl)-1,3-thiazole-2-carboxamide] | 7.92 | 6.89 | 127% | –
7 | O=C(c1sc2cc(Br)ccc2c1Cl)N1CC(N2CC(N3Cc4ccccc4C3=O)C2)C1 [Cpd 75, 2-{1′-[(6-Bromo-3-chloro-1-benzothiophen-2-yl)carbonyl]-1,3′-biazetidin-3-yl}-2,3-dihydro-1H-isoindol-1-one] | 7.82 | 8.15 | – | –
8 | O=C(NC1CN(C2CN(C(=O)c3ccc(-c4ccccc4)cc3)C2)C1)c1ccccc1 [Cpd 39, N-[1′-(Biphenyl-4-ylcarbonyl)-1,3′-biazetidin-3-yl]benzamide] | 6.22 | 6.65 | – | –
9 | O=C(NC1CN(C2CN(C(=O)c3nc4cc(C(F)(F)F)ccc4s3)C2)C1)c1nccs1 [Cpd 47, N-(1′-{[5-(Trifluoromethyl)-1,3-benzothiazol-2-yl]carbonyl}-1,3′-biazetidin-3-yl)-1,3-thiazole-2-carboxamide] | 5.32 | 5.60 | – | –
10 | O=C(NC1CN(C2CN(C(=O)c3ccc(Br)cc3)C2)C1)c1nccs1 [Cpd 43, N-{1′-[(4-Bromophenyl)carbonyl]-1,3′-biazetidin-3-yl}-1,3-thiazole-2-carboxamide] | 5.77 | 5.48 | – | –
11 | O=C(NC1CN(C2CN(C(=O)c3ccc4c(Br)cccc4c3)C2)C1)c1ccccc1 [Cpd 24, N-{1′-[(5-Bromonaphthalen-2-yl)carbonyl]-1,3′-biazetidin-3-yl}benzamide] | 7.00 | – | – | 73%
12 | O=C(c1ccc(Cc2ccccc2)cc1)N1CC(N2CC(N3Cc4ccccc4C3=O)C2)C1 [Cpd 94, 2-{1′-[(4-Benzylphenyl)carbonyl]-1,3′-biazetidin-3-yl}-2,3-dihydro-1H-isoindol-1-one] | 6.39 | 7.04 | – | –
13 | O=C(NC1CN(C2CN(C(=O)c3ccc(Cc4cccc(C(F)(F)F)c4)cc3)C2)C1)c1nccs1 [Cpd 20, N-[1′-({4-[3-(Trifluoromethyl)benzyl]phenyl}carbonyl)-1,3′-biazetidin-3-yl]-1,3-thiazole-2-carboxamide] | 7.19 | – | – | 977%
14 | O=C(c1ccc(-c2ccccc2)cc1)N1CC(N2CC(N3Cc4ccccc4C3=O)C2)C1 [Cpd 92, 2-[1′-(Biphenyl-4-ylcarbonyl)-1,3′-biazetidin-3-yl]-2,3-dihydro-1H-isoindol-1-one] | 6.62 | 7.00 | – | –
15 | O=C(c1ccc2c(ccn2-c2ccccc2C(F)(F)F)c1)N1CC(N2CC(N3Cc4ccccc4C3=O)C2)C1 [Cpd 89, 2-[1′-({1-[2-(Trifluoromethyl)phenyl]-1H-indol-5-yl}carbonyl)-1,3′-biazetidin-3-yl]-2,3-dihydro-1H-isoindol-1-one] | 7.01 | – | – | 663%
16 | O=C(NC1CN(C2CN(C(=O)c3ccc(Cc4ccccc4)cc3)C2)C1)c1ccccc1 [Cpd 31, N-{1′-[(4-Benzylphenyl)carbonyl]-1,3′-biazetidin-3-yl}benzamide] | 6.57 | 6.81 | – | –
17 | O=C(NC1CN(C2CN(C(=O)c3ccc4cc(-c5ccccc5)ccc4c3)C2)C1)c1nccs1 [Cpd 21, N-{1′-[(6-Phenylnaphthalen-2-yl)carbonyl]-1,3′-biazetidin-3-yl}-1,3-thiazole-2-carboxamide] | 7.16 | – | – | 581%
18 | O=C(c1ccc2nc(-c3cccc(C(F)(F)F)c3)oc2c1)N1CC(N2CC(N3Cc4ccccc4C3=O)C2)C1 [Cpd 78, 2-[1′-({2-[3-(Trifluoromethyl)phenyl]-1,3-benzoxazol-6-yl}carbonyl)-1,3′-biazetidin-3-yl]-2,3-dihydro-1H-isoindol-1-one] | 7.77 | 7.40 | – | –
19 | O=C(NC1CN(C2CN(C(=O)c3ccc4ccn(-c5ccccc5)c4c3)C2)C1)c1nccs1 [Cpd 27, N-{1′-[(1-Phenyl-1H-indol-6-yl)carbonyl]-1,3′-biazetidin-3-yl}-1,3-thiazole-2-carboxamide] | 6.78 | 6.35 | – | –
20 | O=C(c1ccc2c(Br)cccc2c1)N1CC(N2CC(N3Cc4ccccc4C3=O)C2)C1 [Cpd 83, 2-{1′-[(5-Bromonaphthalen-2-yl)carbonyl]-1,3′-biazetidin-3-yl}-2,3-dihydro-1H-isoindol-1-one] | 7.64 | – | – | 416%
21 | Cc1c(C(=O)N2CC(N3CC(NC(=O)c4nccs4)C3)C2)sc2ccc(Cl)cc12 [Cpd 15, N-{1′-[(5-Chloro-3-methyl-1-benzothiophen-2-yl)carbonyl]-1,3′-biazetidin-3-yl}-1,3-thiazole-2-carboxamide] | 7.55 | – | – | 611%
22 | O=C(c1cc2cc(Br)ccc2s1)N1CC(N2CC(N3Cc4ccccc4C3=O)C2)C1 [Cpd 93, 2-{1′-[(5-Bromo-1-benzothiophen-2-yl)carbonyl]-1,3′-biazetidin-3-yl}-2,3-dihydro-1H-isoindol-1-one] | 6.44 | 7.11 | – | –
